Experimental data: patent publication US10857201B2, “NNIF and nNIF-related peptides and related methods” (UNIVERSITY OF UTAH RESEARCH FOUNDATION, priority 2016, dated 2020)

Key:
PMN chemotaxis = experiment: IL-8 induced chemotaxis, modified Boyden chamber; assay type: cell-based, human; conditions: IL-8 2 ng/mL, peptides 1 nM
Experimental: FIG. 6D is a graph depicting chemotaxis in response to IL-8 (2 ng/mL) that was examined in a Boyden chamber assay. The dashed line indicates the response to IL-8 alone arbitrarily set at 1.
Chemotaxis by PMNs isolated from healthy adult donors was assessed using a modified Boyden chamber assay ± a 1 hour pre-incubation with nNIF (1 nM), CRISPP (1 nM), or CRISPP-SCR (1 nM). Recombinant human IL-8 (2 ng/mL) was used as the chemoattractant. Chemotaxis through a 5 micron filter was determined by counting PMNs in 10 randomly selected high-power fields as previously described (see Hill H R, et al., Lancet. 1974; 2 (7881):617-9). In separate experiments, nNIF, CRISPP, or CRISPP-SCR (all at 1 nM) were evaluated for chemoattractant activity using the same system.
Without being bound by any specific theory, it was hypothesized that placentally expressed HTRA1, a serine protease, regulates the formation of NET-inhibitory peptides through cleavage of AAT. To test this hypothesis, term and preterm placenta were assessed for HTRA1 expression via western blotting. HTRA1 and AAT plasma expression from term and preterm infants and adults were determined by ELISA. […] Carboxy-terminus fragments of AAT were detected using western blotting and mass spectrometry. […] Reactive oxygen species were assessed using flow cytometry, chemotaxis using a modified Boyden chamber assay, and bacterial killing using E. coli.

[1] = test system: PMN killing of a pathogenic strain of Escherichia coli; experiment: Bacterial killing assay (total, phagocytic, NET-mediated); assay type: cell-based, human; conditions: LPS-stimulated PMNs, E. coli
Experimental: FIG. 6A is a graph depicting results, after preincubation, of neutrophils that were stimulated with LPS (100 ng/mL) to trigger NET formation and incubated with a pathogenic isolate of E. coli. Total, phagocytic, and NET-mediated bacterial killing were measured (see Yost C C, et al., Blood. 2009; 113 (25):6419-27). One way ANOVA with Bonferonni's post hoc testing; *P<0.05, **P<0.01.
NET-mediated and phagocytic bacterial killing by primary human PMNs was determined as previously described (see Yost C C, et al., Blood. 2009; 113 (25):6419-27).
Without being bound by any specific theory, it was hypothesized that placentally expressed HTRA1, a serine protease, regulates the formation of NET-inhibitory peptides through cleavage of AAT. To test this hypothesis, term and preterm placenta were assessed for HTRA1 expression via western blotting. HTRA1 and AAT plasma expression from term and preterm infants and adults were determined by ELISA. Bioactive (0.5 μg) or placental eluted HTRA1 was incubated with AAT (8 μM) for 18 hours at 37° C. Carboxy-terminus fragments of AAT were detected using western blotting and mass spectrometry. The reaction products were incubated for 1 hour with PMNs isolated from healthy adults prior to LPS stimulation (100 ng/mL) and assessed for NET formation using live cell imaging. Reactive oxygen species were assessed using flow cytometry, chemotaxis using a modified Boyden chamber assay, and bacterial killing using E. coli.

platelets = experiment: P-selectin surface translocation on thrombin-activated platelets (flow cytometry); assay type: cell-based, human; conditions: thrombin 0.1 U/mL; peptide 1 nM
Experimental: FIG. 6E is a graph depicting surface translocation of P-selectin on platelets activated by thrombin (0.1 U/mL) that was measured by flow cytometry. The dashed line indicates surface P-selectin on unstimulated platelets.
P-selectin translocation and surface display by activated platelets (see van Velzen J F, et al., Thromb Res. 2012; 130 (1):92-8) and formation of platelet-neutrophil aggregates (see Evangelista V, et al., Blood. 1996; 88 (11):4183-94) were measured as described.

PMN phagocytosis = experiment: Phagocytosis of fluorescently labeled E. coli bioparticles; assay type: cell-based, human; conditions: 4 hour incubation, peptides 1 nM
Experimental: FIG. 6C is a graph depicting phagocytosis of fluorescently-labeled E. coli bioparticles that were measured by microscopy after a 4 hour incubation. Treatment with cytochalasin B and D served as a control for inhibition of phagocytosis. Student's t test, *P<0.05.
PMNs were isolated from blood of healthy adult donors and resuspended in M-199 at a concentration of 2×10^6 cells/mL. Leukocytes were pre-incubated for 60 minutes under standard conditions with cytochalasin D and B (10 μM), nNIF (1 nM), CRISPP (1 nM), or CRISPP-SCR (1 nM). Following pre-incubation, PMNs were incubated with 6×10^6 E. coli bioparticles (MOLECULAR PROBES®) on a rotator for 4 hours at 37° C. in 5% […] air. The PMNs were then washed and resuspended in the starting volume of M-199 before being spun down onto glass coverslips and fixed with 2% p-FA for 10 minutes and permeabilized with 0.1% Triton-X-100 for 10 minutes. Leukocytes were stained with WGA 555 (INVITROGEN™) and TO-PRO®-3 (MOLECULAR PROBES®), and randomly selected high-power visual field images were captured using confocal microscopy. IMAGEJ™ software (NIH) was used to determine the percentage of PMNs that were positive for fluorescently labeled E. coli bioparticles detected at 488 nm.

[2] = test system: nuclear chromatin decondensation in PMNs; experiment: Nuclear decondensation assay in PMA-treated neutrophils; assay type: cell-based, human; conditions: PMA 20 nM; peptides 1 nM, Cl-amidine 10 μM, sivelestat 200 nM
Experimental: FIG. 7B is a graph depicting nuclear areas that were measured (n=4) using IMAGEJ™ software (mean nuclear pixel area per cell±SEM). Paired Student's t test, *P<0.05, § P=0.057.
FIG. 12A depicts nuclear decondensation (white arrowheads and magnified image) that were assessed as in FIGS. 7A-7E after a 1 hour preincubation in medium alone, with neutrophil elastase (NE) inhibitor sivelestat (SIVL; 200 nM), or with CRISPP or CRISPP-SCR (both 1 nM) followed by treatment with PMA (20 nM) and an additional 1 hour incubation (n=3). Green fluorescence=nuclear DNA, (60× magnification, scale bar=20 μm). Nuclear area was quantified using IMAGEJ™ software (nuclear pixel area per cell±SEM). One way ANOVA with Tukey's post hoc testing; **P<0.01, ***P<0.001.
Nuclear decondensation was identified as described (see Papayannopoulos V, et al., J Cell Biol. 2010; 191 (3):677-91). Five randomly selected high-power visual fields per sample were captured via confocal microscopy and analyzed for nuclear area using the cell-permeable, fluorescent DNA dye SYTO® Green. The nuclear pixel areas of >100 individual cells per high-power field were determined using IMAGEJ™ software (NIH).

[3] = test system: C57BL/6 mice subjected to CLP; experiment: Mouse model of polymicrobial sepsis, cecal ligation and puncture (CLP); conditions: 10 mg/kg i.p. 1 hour before and 6 hours after, versus nNIF-SCR
Experimental: FIG. 9B is a graph depicting C57BL/6 mice that were subjected to cecal ligation and puncture (CLP). nNIF or nNIF-SCR (10 mg/kg i.p.) was given 1 hour before and 6 hours after surgery (n≥7 in each group). Mice subjected to sham surgery were studied in parallel (n=3 in each group). Clinical illness severity scores (see Araujo C V, et al., Shock. 2016; 45 (4):393-403) were determined at 24 hours.
C57BL/6 mice were anaesthetized with ketamine/xylazine (100 mg/kg and 10 mg/kg, i.p; respectively), and cecal ligation and puncture (CLP) was performed as previously described (see Araujo C V, et al., Shock. 2016; 45 (4):393-403). nNIF (10 mg/kg) or nNIF-SCR (10 mg/kg) i.p. was given 1 hour prior to and 6 hours after CLP surgery. The animals received subcutaneous sterile isotonic saline (1 mL) for fluid resuscitation immediately after the surgery. Sham-operated mice were subjected to identical procedures except that CLP was not done. 24 hours after CLP, all animals were scored for clinical illness severity as previously described (see Araujo C V, et al., Shock. 2016; 45 (4):393-403). In this assessment, higher scores reflect increased illness severity.

| Substance | IL-8 induced chemotaxis (PMN chemotaxis) | extracellular NET-mediated bacterial killing [1] | phagocytic intracellular killing [1] | total bacterial killing [1] | surface translocation of P-selectin by thrombin-stimulated platelets (platelets) | phagocytosis (PMN phagocytosis) | nuclear decondensation (number of decondensed nuclei) [2] | clinical illness scores at 24 hours [3] |
| --- | --- | --- | --- | --- | --- | --- | --- | --- |
| M_IPPEVKFNKPFVFLMIDQNTKVPLFMGK [CRISPP, consensus peptide based on factors present in the blood of patients with cancer] | did not inhibit | depressed | not altered | depressed | does not inhibit | did not inhibit | dramatically reduced |  |
| KFNKPFVFLMIEQNTKSPLFMGKVVNPTQ (listed as Homo sapiens) [nNIF] | did not inhibit |  |  |  |  | did not inhibit | dramatically reduced | lower |
